Reference: US5059589A, “Glaucoma treatment” (Abbott Laboratories, priority 1990, dated 1991)
Where a name gives a salt, the structure may show the parent alone.

Test system: intraocular pressure in rabbits
Assay: Effects of topically administered renin inhibiting compounds on intraocular pressure of rabbits
Assay type: in vivo, Male albino, New Zealand rabbits
Settings: topical 0.1 ml, 0.1% (w/v)
Experimental: The antiglaucoma activity of the compounds was tested by measuring the effect on intraocular pressure in rabbits as described by Tinjum, A.M., Acta Ophthalmologica, 50, 677 (1972). Male albino, New Zealand rabbits were placed in restraining devices and the intraocular pressure was measured with an applamatic tonometer. Exactly 0.1 ml of an isotonic saline solution containing a test compound was instilled into the conjuctival sac and the intraocular pressure was measured at 5, 15, 30, 60, 90, 120 and 180 minutes afterwards.

[1] = 15 minutes after administration
[2] = 30 minutes after administration
[3] = 60 minutes after administration
[4] = 90 minutes after administration
[5] = 120 minutes after administration
[6] = 180 minutes after administration

Row | Compound | Mean Intraocular Pressure in mmHg (0 minutes after administration) | Mean Intraocular Pressure in mmHg (5 minutes after administration) | Mean Intraocular Pressure in mmHg [1] | Mean Intraocular Pressure in mmHg [2] | Mean Intraocular Pressure in mmHg [3] | Mean Intraocular Pressure in mmHg [4] | Mean Intraocular Pressure in mmHg [5] | Mean Intraocular Pressure in mmHg [6]
1 | Boc-Phe-Histidinyl-4-amino-3-hydroxy 5-cyclohexylpentanoic acid amide of 2 methylbutylamine [Compound VII] | 19.7 mmHg | 17.2 mmHg | 13.8 mmHg | 14.3 mmHg | 14.8 mmHg | 19.3 mmHg | 21.1 mmHg | 22.7 mmHg
2 | Boc-Phe-His amide of (2S,4S,1'R,2'S)-2-(2-amino-7-cyclohexyl-4,5-dihydroxyheptan-2-oic acid sodium salt [Compound XI] | 18.5 mmHg | 13.4 mmHg | 11.4 mmHg | 10.6 mmHg | 14.6 mmHg | 16.1 mmHg | 15.7 mmHg | 19.0 mmHg
3 | CC(C)C[C@H](O)[C@H](O)[C@H](CC1CCCCC1)NC(=O)[C@H](Cc1cnc[nH]1)NC(=O)[C@H](Cc1ccccc1)NC(=O)N1CCOCC1 [Compound I, (4-morpholinyl)carbonyl Phe-His amide of 2(S) amino-1 cyclohexyl-(3R),4(S)dihydroxy-6-methylheptane] | 19.0 mmHg | 18.2 mmHg | 16.5 mmHg | 12.2 mmHg | 13.9 mmHg | 15.1 mmHg | 16.8 mmHg | 20.4 mmHg
4 | CCOC(=O)[C@H](C)NC(Cc1ccccc1)C(=O)NC(Cc1cnc[nH]1)C(=O)N[C@@H](CC1CCCCC1)[C@@H](O)[C@@H](O)CC(C)C (stereo partly drawn) [Compound XIV, (1(S)-(Ethoxycarbonyl)-ethyl)-Phe-His amide of 2 (S)-amino 1-cyclohexyl-3(R),4(S)-dihydroxy 6-methylheptane] | 21.0 mmHg | 16.8 mmHg | 14.0 mmHg | 15.1 mmHg | 14.6 mmHg | 16.4 mmHg | 17.9 mmHg | 19.6 mmHg
5 | CC(C)CC(NC(=O)C(Cc1ccccc1)NC(=O)CCCC(=O)O)C(=O)N[C@@H](CC1CCCCC1)[C@@H](O)[C@@H](O)CC(C)C (stereo partly drawn) [Compound XIII, 4-Carboxybutyroyl-Phe-Leu amide of 2(S)-amino 1-cyclohexyl 3(R),4(S)-dihydroxy 6-methylheptane] | 19.5 mmHg | 17.6 mmHg | 17.2 mmHg | 15.6 mmHg | 16.4 mmHg | 16.3 mmHg | 17.5 mmHg | 15.3 mmHg
6 | C=C(C[C@H](O)[C@H](O)[C@H](CC1CCCCC1)NC(=O)C(Cc1cnc[nH]1)NC(=O)C(Cc1ccccc1)NC(=O)OC(C)(C)C)C(=O)[O-].[Na+] (stereo partly drawn) [Compound XII, Boc-Phe-His amide of (4S,5R,6S)-6-amino-7-cyclohexyl-4,5-dihydroxy-1-hepten-2-oic acid sodium salt] | 19.3 mmHg | 12.5 mmHg | 10.3 mmHg | 12.4 mmHg | 12.3 mmHg | 12.3 mmHg | 14.6 mmHg | 16.3 mmHg
7 | C=C(C[C@H](O)[C@H](CC1CCCCC1)NC(=O)C(Cc1cnc[nH]1)NC(=O)C(Cc1ccccc1)NC(=O)OC(C)(C)C)C(=O)NCCC(C)C (stereo partly drawn) [Compound IX, Boc-Phe-His amide of (4S,5S) N-(3-methylbutyl)-5-amino-6-cyclohexyl-1-hexen-4-ol-2-carboxamide] | 22.2 mmHg | 22.5 mmHg | 18.1 mmHg | 15.8 mmHg | 19.5 mmHg | 22.4 mmHg | 24.3 mmHg | 24.2 mmHg
8 | CC[C@@H]1C(=O)OC[C@@H]1Cc1cncn1C [Pilocarpine, reference compound] | 17.6 mmHg | 14.4 mmHg | 13.0 mmHg | 11.9 mmHg | 13.0 mmHg | 12.6 mmHg | 16.4 mmHg | 17.7 mmHg
9 | CC(C)(C)OC(=O)NC(Cc1ccccc1)C(=O)NC(Cc1cnc[nH]1)C(=O)N[C@@H](CC1CCCCC1)[C@@H](O)[C@@H](O)CN (stereo partly drawn) [Compound X, Boc-Phe-His amide (4-amino) of (2S,3R,4S) 1,4-diamino-2,3-dihydroxy-5-cyclohexylpentane] | 20.8 mmHg | 20.6 mmHg | 20.6 mmHg | 15.9 mmHg | 15.1 mmHg | 19.1 mmHg | 20.6 mmHg | 21.7 mmHg
10 | CC(C)C[C@H](O)[C@H](O)[C@H](CC1CCCCC1)NC(=O)[C@H](Cc1cnc[nH]1)NC(=O)[C@H](Cc1ccccc1)NC(=O)N1CCC(O)CC1 [Compound III, (1-(4 hydroxypiperidinyl)carbonyl)-Phe-His amide of 2(S)-amino 1-cyclohexyl-3(R),4(S) dihydroxy 6-methylheptane] | 19.1 mmHg | 15.5 mmHg | 12.4 mmHg | 13.9 mmHg | 14.9 mmHg | 16.3 mmHg | 17.8 mmHg | 18.2 mmHg
11 | COc1ccc(C[C@H](NC(=O)CC(C)(C)N)C(=O)N[C@@H](Cc2cnc[nH]2)C(=O)N[C@@H](CC2CCCCC2)[C@@H](O)[C@@H](O)CC(C)C)cc1 [Compound II, H-((beta,betadimethyl)-beta-Ala)-(4 OCH3)Phe-His amide of 2(S)-amino-1-cyclohexyl-3(R),4(S) dihydroxy-6-methylheptane di-acetic acid salt] | 18.4 mmHg | 15.0 mmHg | 13.5 mmHg | 13.2 mmHg | 13.4 mmHg | 17.1 mmHg | 19.0 mmHg | 17.2 mmHg
